Structures are written as SMILES. Like-named read-outs stand apart in the source and are kept apart here. Where only a bound is given, the exact number is not on record here.

From patent US8809341B2, “2,4-pyrimidinediamine compounds and uses as anti-proliferative agents” (Rigel Pharmaceuticals, Inc., priority 2003, dated 2014) come the findings set out here.

What all share (assay type): cell-based
In test [1] the test system is A549 cells. Kind of test: in vitro antiproliferation assay, A549 (lung). Put shortly:
(§1)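 Standard in vitro antiproliferation assays on tumour cell lines, including A549 and H1299 (both lung); IC50 values determined.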

Test [2] has as its system HCT116. Kind of test: in vitro antiproliferation assay, HCT116 (colon). How it is done:
The IC50 values of various compounds against a various different tumor cell lines were determined using standard in vitro antiproliferation assays. The tumor cell lines tested were as follows: A549 (lung); H1299 (lung), ACHN (kidney/p53 wt), CAKI (renal cell carcinoma), NCI-H460 (lung); HCT116 (colon/p53w0; HELA (cervix/p53 wt), HUH7 (liver/p53 wt), HUVEC (primary endothelial), LNCAP (prostate), HT-29 (colon); MCF-7 (breast); MCF-7 (breast/ER positive), MDA MB435S (breast); MDA MB231 (breast/ER negative), DU145 (prostate); BxPC-3 (pancreatic); SKOV-3 (ovarian); HepG2 (hepatic), NDHF primary normal human dermal fibroblast), SKMEL28 (breast/p53mut), SKMEL5 (breast/p53 wt), U20S (bone) and PC3 (prostate). […] A blank indicates the specified compound was not tested against the specified cell line.
Many of the compounds were tested against other cell lines. Their activity is reported in TABLE 15, below, where +”, “−”, “−/+” or “+/−” values are as described for TABLES 1-14. Where the cell line includes a value in a parenthetical, the value indicates the seeding density at which the assay was performed

The test system of test [3] is H1299 cells. Kind of test: in vitro antiproliferation assay, H1299 (lung). An outline of the steps: as §1
[4] abbreviates: A549 (lung) cells, in vitro antiproliferation.
[5] abbreviates: HCT116 (colon), read-out: HCT116.
Where [6] appears, read: A549 (lung) cells, antiproliferation.
Setting [7] is: Table 5, in vitro antiproliferation, A549 (lung) cells.
The mark [8] stands for this setting: Table 7, in vitro antiproliferation, A549 (lung) cells.
[9] abbreviates: Table 7, in vitro antiproliferation, colon cells, read-out: HTC116.
[10] abbreviates: Table 7, in vitro antiproliferation, H1299 (lung) cells.
[11] abbreviates: in vitro antiproliferation, A549 (lung) cells, Table 4, compounds with no designated stereochemistry tested as racemate.

For `COc1cc(Nc2nc(Nc3cc(C)cc(C(F)(F)F)c3)ncc2F)cc(OC)c1` [compound 848], the IC50 in test [1] (setting [4]) and in test [2] (setting [5]) was not above 20 µM in each case.
As for `COCCOc1cccc(Nc2ncc(F)c(Nc3cc(O)c(O)c(OCCOC)c3)n2)c1` [compound 933], the IC50 in test [3] (H1299 (lung) cells, antiproliferation) is not above 20 µM; in test [1] (setting [6]), not above 20 µM; in test [2] (setting [5]), not above 20 µM.
Consider `COc1cc(Nc2nc(Nc3cc(Cl)cc(Cl)c3)ncc2F)cc(OC)c1` [compound 847], for which the IC50 in test [1] (setting [4]) and in test [2] (setting [5]) was not above 20 µM in each case.
On to `Cc1cc(C)cc(Nc2ncc(F)c(Nc3ccc4c(c3)OCCO4)n2)c1` [compound 527], for which the IC50 in test [1] (setting [7]) and in test [2] (setting [5]) was not above 20 µM each time.
On to `COC(=O)N1CCN(c2ccc(Nc3ncc(F)c(NC4CC4)n3)cc2)CC1` [compound 104], for which the IC50 in test [3] (IC50 class against H1299 (lung) tumor cells) was not above 20 µM; in test [1] (IC50 class against A549 (lung) tumor cells), not above 20 µM; in test [2] (setting [5]), more than 20 µM.
As for `Fc1cnc(Nc2cccc(Cl)c2)nc1Nc1cccc(Cl)c1` [compound 717], the IC50 in test [1] (setting [4]) is not above 20 µM; in test [2] (setting [5]) it was more than 20 µM.
`COC(=O)c1cc2cc(Nc3ncc(F)c(Nc4ccc5c(c4)NC(=O)C(C)(C)O5)n3)ccc2o1` [compound 677]: the IC50 in test [1] (setting [8]) was not above 20 µM; in test [2] (setting [5]) it was more than 20 µM; in test [2] (setting [9]), more than 20 µM.
Regarding `Cc1cc(C)cc(Nc2ncc(F)c(Nc3cc(C)cc(C)c3)n2)c1` [compound 841], the IC50 in test [3] (H1299 (lung) cells, in vitro antiproliferation) was not above 20 µM; in test [1] (setting [4]), not above 20 µM; in test [2] (setting [5]), not above 20 µM.
For the compound `COc1cc(Nc2nc(Nc3cccc4cc(C(=O)N(C)CCO)[nH]c34)ncc2F)cc(OC)c1` [compound 659], the IC50 in test [3] (setting [10]), in test [1] (setting [8]) and in test [2] (setting [9]) was not above 20 µM each time.
As for `COc1cc(Nc2nc(Nc3cccc4cc(C(=O)NC(C)(C)CO)[nH]c34)ncc2F)cc(OC)c1` [compound 660], the IC50 in test [3] (setting [10]), in test [1] (setting [8]) and in test [2] (setting [9]) was not above 20 µM throughout.
Turning to `COC(=O)c1cc2cc(Nc3ncc(F)c(Nc4ccc(Cl)c(Cl)c4)n3)ccc2o1` [compound 652], the IC50 in test [1] (setting [8]) and in test [2] (setting [5]) was more than 20 µM in each case.
Take `COc1ccc(Nc2ncc(F)c(Nc3ccc(OC)c(OC)c3)n2)cc1OC` [compound 710]: the IC50 in test [1] (setting [4]) and in test [2] (setting [5]) was not above 20 µM throughout.
`OCCOc1cccc(Nc2ncc(F)c(Nc3ccc4c(c3)OCCCO4)n2)c1` [compound 581]: the IC50 in test [1] (setting [7]) and in test [2] (setting [5]) was not above 20 µM each time.
With `COc1cc(Nc2ncc(F)c(Nc3ccc4c(c3)NC(=O)C(C)(C)O4)n2)cc(C(F)(F)F)c1` [compound 309], the IC50 in test [1] (setting [11]) and in test [2] (setting [5]) was not above 20 µM throughout.
As for `Cc1cc(C)cc(Nc2ncc(F)c(Nc3ccc4c(c3)NC(=O)C(C)(C)O4)n2)c1` [compound 310], the IC50 in test [1] (setting [11]) and in test [2] (setting [5]) was not above 20 µM in each case.
As for `CNC(=O)COc1cccc(Nc2ncc(F)c(Nc3cc(C)c(O)c(Cl)c3)n2)c1` [compound 991], the IC50 in test [1] (setting [6]) and in test [2] (setting [5]) was not above 20 µM throughout.
For the compound `Oc1c(Cl)cc(Nc2ncc(F)c(Nc3ccc4c(c3)OCCO4)n2)cc1Cl` [compound 507], the figures for the IC50 in test [1] (setting [7]) and in test [2] (setting [5]) were not above 20 µM and more than 20 µM, respectively.
Take `CCOC(=O)c1cc2cccc(Nc3ncc(F)c(Nc4cccc(O)c4)n3)c2[nH]1` [compound 648]: the IC50 in test [1] (setting [8]) and in test [2] (setting [9]) was not above 20 µM throughout.
As to `COC(=O)c1cc2cc(Nc3ncc(F)c(Nc4ccc(Cl)cc4)n3)ccc2o1` [compound 651], the IC50 in test [1] (setting [8]) and in test [2] (setting [5]) was more than 20 µM each time.
In the case of `O=C(c1cc2cc(Nc3ncc(F)c(Nc4ccc5c(c4)OCCO5)n3)ccc2o1)N1CCOCC1` [compound 626], the results for the IC50 in test [1] (setting [8]), in test [2] (setting [5]) and in test [2] (setting [9]) were less than 20 µM, not above 20 µM and not above 20 µM, respectively.
Regarding `CNC(=O)c1cc2cc(Nc3ncc(F)c(Nc4ccc5c(c4)OCCO5)n3)ccc2o1` [compound 629], the IC50 in test [1] (setting [8]), in test [2] (setting [5]) and in test [2] (setting [9]) was not above 20 µM each time.
With `CCOC(=O)c1cc2cccc(Nc3ncc(F)c(Nc4ccc5c(c4)OCCO5)n3)c2[nH]1` [compound 647], the IC50 in test [1] (setting [8]), in test [2] (setting [5]) and in test [2] (setting [9]) was not above 20 µM in each case.
Regarding `CC(C)Oc1cccc(Nc2nc(Nc3ccc4oc(C(=O)N5CCOCC5)cc4c3)ncc2F)c1` [compound 625], the IC50 in test [1] (setting [8]) and in test [2] (setting [9]) was not above 20 µM each time.
In the case of `O=C(c1cc2cc(Nc3ncc(F)c(Nc4cccc(O)c4)n3)ccc2o1)N1CCNCC1` [compound 633], the IC50 in test [1] (setting [8]), in test [2] (setting [5]) and in test [2] (setting [9]) was not above 20 µM in each case.
Regarding `OCc1cc(CO)cc(Nc2ncc(F)c(Nc3ccc4c(c3)OC(F)(F)C(F)(F)O4)n2)c1` [compound 534], the IC50 was not above 20 µM in test [3] (Table 5, in vitro antiproliferation, H1299 (lung) cells) and not above 20 µM in test [2] (setting [5]).
In the case of `CNC(=O)COc1cccc(Nc2ncc(F)c(Nc3ccc4c(c3)NC(=O)[C@H](C)O4)n2)c1` [compound 300], the IC50 in test [1] (setting [11]) and in test [2] (setting [5]) was not above 20 µM in each case.
As for `COc1cc(Nc2ncc(F)c(Nc3cc(OC)cc(OC)c3)n2)cc(OC)c1` [compound 839], the IC50 in test [1] (setting [4]) and in test [2] (setting [5]) was not above 20 µM throughout.
For `COc1cc(Nc2ncc(F)c(Nc3ccc4c(c3)NC(=O)C(C)(C)O4)n2)cc(OC)c1` [compound 305], the IC50 in test [1] (setting [11]) and in test [2] (setting [5]) was not above 20 µM in each case.
On to `COc1c(Cl)cc(Nc2ncc(F)c(Nc3ccc4c(c3)NC(=O)C(C)(C)O4)n2)cc1Cl` [compound 307], for which the IC50 in test [1] (setting [11]) and in test [2] (setting [5]) was not above 20 µM each time.
For `CNC(=O)COc1cccc(Nc2ncc(F)c(Nc3cccc(OC)c3)n2)c1` [compound 755], the IC50 in test [1] (setting [4]) and in test [2] (setting [5]) was not above 20 µM in each case.
For the compound `CC1(C)Oc2ccc(Nc3nc(Nc4cccc(O)c4)ncc3F)cc2NC1=O` [compound 356], the IC50 in test [2] (setting [5]) was more than 20 µM.
As to `CNC(=O)COc1cccc(Nc2ncc(F)c(Nc3cccc(O)c3)n2)c1` [compound 732], the IC50 in test [1] (setting [4]) and in test [2] (setting [5]) was not above 20 µM throughout.
In the case of `COC(=O)c1cc2cc(Nc3ncc(F)c(Nc4cccc(O)c4)n3)ccc2o1` [compound 636], the IC50 in test [1] (setting [8]) was not above 20 µM; in test [2] (setting [5]), more than 20 µM; in test [2] (setting [9]), more than 20 µM.
For `Cc1cc(Nc2ncc(F)c(Nc3ccc4c(c3)OCCO4)n2)cc(C)c1Cl` [compound 528], the IC50 in test [1] (setting [7]) and in test [2] (setting [5]) was not above 20 µM in each case.
Consider `O=C(c1cc2cc(Nc3ncc(F)c(Nc4ccc5c(c4)OCCO5)n3)ccc2o1)N1CCNCC1` [compound 632], for which the IC50 in test [1] (setting [8]), in test [2] (setting [5]) and in test [2] (setting [9]) was not above 20 µM throughout.
As to `O=C(COc1cccc(Nc2ncc(F)c(Nc3ccc4c(c3)OCCO4)n2)c1)N1CCNCC1` [compound 497], the IC50 in test [1] (setting [7]) was not above 20 µM; in test [2] (setting [5]) it was more than 20 µM.
The matching figures for `NC(=O)COc1cccc(Nc2ncc(F)c(Nc3ccc4c(c3)OCCO4)n2)c1` [compound 504]: not above 20 µM and not above 20 µM.
In the case of `O=C(NCCO)c1cc2cc(Nc3ncc(F)c(Nc4ccc5c(c4)OCCO5)n3)ccc2o1` [compound 631], the IC50 in test [1] (setting [8]), in test [2] (setting [5]) and in test [2] (setting [9]) was not above 20 µM throughout.
Take `COc1cc(Nc2ncc(F)c(Nc3ccc4c(c3)OCCO4)n2)cc(OC)c1OC` [compound 506]: the IC50 in test [1] (setting [7]) was not above 20 µM; in test [2] (setting [5]) it was more than 20 µM.
